We go through 2 compounds from patent US7901906B2, “Targeting of MKRN1 for identifying cancer treatment agents” (University of Central Florida Research Foundation, Inc., priority 2006, dated 2011).

For experiment [1], the system named is hTERT. Description: Ubiquitination of hTERT in H1299 cells (immunoprecipitation, anti-HA immunoblot). The format is cell-based, human. On the procedure: (§1) FIG. 2. hTERT is ubiquitinated prior to proteasome-mediated degradation. (A) H1299 cells were co-transfected with Flag-hTERT and HA-ubiquitin. Cells were either untreated or treated for 2 hours with 10 μg/ml ALLnN or 0.1 μM GA, or a combination of the two as specified above each lane. Immunoprecipitation was performed with anti-Flag antibody before probing with anti-hTERT or anti-HA antibodies as indicated besides each blot. Molecular weight markers are shown in kilodaltons. (B) H1299 cells co-transfected with Flag-hTERT and HA-ubiquitin were treated for 1 hour with the GA concentration indicated in the presence of 10 μM MG132. Immunoprecipitation was performed with anti-Flag antibody followed by immunoblotting using an anti-HA antibody probe. (C) H1299 cells co-transfected with Flag-hTERT and HA-ubiquitin were either untreated or treated for 2 hours with 10 μg/ml ALLnN as specified above each lane. Proteins were immunoprecipated with anti-Flag antibody followed by immunoblotting using an anti-HA antibody probe.
FIG. 4. MKRN1 functions as an E3 ubiquitin-ligase for hTERT in vitro and in vivo. (A) HA-tagged hTERT (residues 946-1132) was incubated MKRN1 or mutants in the presence of E1, E2, His6-ubiquitin (6×His tag disclosed as SEQ ID NO: 7). Samples were resolved by 6% SDS-PAGE and analyzed by immunoblotting with an anti-HA antibody probe. (B) H1299 cells were co-transfected with Flag-hTERT, HA-ubiquitin, MKRN1-V5, and together with either MKRN1^H307E-V5 or MKRN1^Δ^C-V5 as specified. Cells were untreated or treated with 10 μM MG132 for 2 hours. Anti-Flag immunoprecipitates and cell lysates were analyzed by immunoblotting with anti-HA antibody and anti-V5 antibody probes, respectively. (C) H1299 cells co-transfected with Flag-hTERT and HA-ubiquitin, and together with or without MKRN1-V5 as indicated were treated with 10 μM MG132 for the indicated times. Anti-Flag immunoprecipitates and cell lysates were analyzed by immunoblotting with anti-HA antibody and anti-V5 antibody probes, respectively.
H1299 cells were transiently transfected with the expression vectors indicated in the figure legends using TransFast transfection reagent (Promega, Madison, Wis.) according to the manufacturer's instructions. Cells were lysed with buffer containing 0.5% NP-40, 50 mM Tris-HCl (pH 7.5), 150 mM NaCl, 2 mM phenyl methylsulphonyl fluoride. After centrifugation at 12,000 rpm for 30 min, the supernatants were immunoprecipitated for 2 hours with anti-Flag (Sigma, St. Louis, Mo.) or anti-HA (Santa Cruz biotechnology, Santa Cruz, Calif.) antibodies and then incubated with Sepharose beads conjugated to Protein G (Amersham Biosciences Inc., Piscataway, N.J.). When ubiquitin conjugates of hTERT were detected, immunoprecipitation was performed with lysis buffer containing 0.1% SDS to dissociate its interacting proteins. Immunoblot analyses were performed using anti-hTERT (Santa Cruz biotechnology, Santa Cruz, Calif.), anti-V5 (Invitrogen, Carlsbad, Calif.), anti-HA, and anti-Flag antibodies.
GA-mediated protein degradation by the proteasome depends on conjugation of ubiquitin to the Hsp90 client protein (Isaacs et al. 2002; Citri et al. 2002). To determine whether hTERT is ubiquitinated in vivo prior to its degradation, H1299 cells co-transfected with Flag-tagged hTERT and HA-tagged ubiquitin constructs were treated with GA, ALLnN (a general proteasome inhibitor) or both. The immunoprecipitated products were evaluated by immunoblotting with selected probes as described in FIG. 2. […]

The test system of experiment [2] is hTERT. Nature of the experiment: hTERT protein levels by immunoblotting in H1299 cells. The class given is cell-based, human. On the procedure: FIG. 1. hTERT is sensitive to the Hsp90 antagonist geldanamycin. (A) Down-regulation of ectopically expressed hTERT by GA. H1299 cells transfected with Flag-hTERT or Flag-TRF1 were treated with 0.1 μM GA for the indicated times. Lysates were resolved on 8% SDS-PAGE and analyzed by immunoblotting using an anti-Flag antibody probe. Cells were pretreated with 10 μM MG132 or E-64 for 2 hours, either alone or before treatment with GA. (B) Concentration dependence of GA on hTERT. H1299 cells transfected with Flag-hTERT or hTERT-HA were treated for 2 hours with the GA concentration indicated. The hTERT polypeptides were visualized with anti-Flag or anti-HA antibodies as marked by each blot. (C) Down-regulation of endogenous hTERT by GA. H1299 cells were treated with 0.1 μM GA for the indicated times, and cell lysates were analyzed by immunoprecipitation with anti-hTERT antibody followed by immunoblotting using same antibody probe. Cells were pretreated with 10 μM MG132 for 2 hours, either alone or before treatment with GA. Molecular weight markers are shown in kilodaltons. (D) H1299 cells were treated with 0.1 μM GA for the indicated times, and cell lysates were analyzed for telomerase activity by the TRAP assay. The lane labeled LB corresponds to the negative control (lysis buffer only). ITAS represents the internal telomerase assay standard. (E) Saos-2 cells transfected with Flag-hTERT or hTERT-HA or empty vector were untreated or treated with 0.1 μM GA for 16 hours, and cell lysates were analyzed for telomerase activity using the TRAP assay.
as §1
The human lung carcinoma cell line H1299 was cultured in RPMI-1640 medium, and the human fibrosarcoma cell line HT1080 was cultured in Dulbecco's modified Eagle's medium supplemented with 10% fetal bovine serum, 100 units/ml penicillin, and 100 μg/ml streptomycin in 5% CO2 at 37° C. The human osteosarcoma cell line Saos-2 was maintained in McCoy's 5A medium containing 15% fetal bovine serum, 100 units/ml penicillin, and 100 μg/ml streptomycin. To establish cell lines stably expressing MKRN1, the MKRN1-V5 construct was transfected into HT1080 cells using Lipofectamine Plus (Invitrogen, Carlsbad, Calif.) according to the manufacturer's instructions. As a control, HT1080 cells were also stably transfected with an empty vector. Multiple independent single clones were isolated and checked for protein expression by immunoblotting with anti-V5 antibody.
H1299 cells were transiently transfected with the expression vectors indicated in the figure legends using TransFast transfection reagent (Promega, Madison, Wis.) according to the manufacturer's instructions. Cells were lysed with buffer containing 0.5% NP-40, 50 mM Tris-HCl (pH 7.5), 150 mM NaCl, 2 mM phenyl methylsulphonyl fluoride. […]

Non-standard residues stand in square brackets, D forms with d. Residues, ends and D or L forms follow the SMILES beside them. *: point of attachment. Nle = CCCC[C@H](N)C(=O)O; Cbz = O=C(OCc1ccccc1)*

On to `CCCC[C@@H](C=O)NC(=O)[C@H](CC(C)C)NC(=O)[C@H](CC(C)C)NC(C)=O` [ALLnN] (Ac-Leu-Leu-[Nle]-aldehyde), for which, in the experiment on hTERT [1] (H1299, 10 μg/ml ALLnN, 2 hours, FIG. 2C), the “polyubiquitinated hTERT forms in absence of GA” value is listed as “significantly elevated”. Also, the “ubiquitinated hTERT” value in the experiment on hTERT [1] (H1299 Flag-hTERT and HA-ubiquitin, 10 μg/ml ALLnN, 2 hours, FIG. 2A) is listed as “dramatically elevated”. For the same compound, the “effect on GA-induced decrease of hTERT levels” value with hTERT [2] (H1299 Flag-hTERT and HA-ubiquitin, 10 μg/ml ALLnN plus 0.1 μM GA, 2 hours) is reported as “reversed this trend”. Besides, the hTERT levels entry in the experiment with hTERT [2] (H1299 co-transfected with Flag-hTERT and HA-ubiquitin, 2 hours, single agent (0.1 μM GA or 10 μg/ml ALLnN)) is recorded as “did not affect”.
Regarding `CC(C)C[C@@H](C=O)NC(=O)[C@H](CC(C)C)NC(=O)[C@H](CC(C)C)NC(=O)OCc1ccccc1` [MG132] (Cbz-Leu-Leu-Leu-aldehyde), the “hTERT-ubiquitin conjugates without MKRN1 co-expression” value with hTERT [1] (H1299 Flag-hTERT plus HA-ubiquitin, 10 μM MG132, 45-60 minutes) is listed as “low levels were detected”. In addition, in the experiment on hTERT [1] (H1299 co-transfected with Flag-hTERT, HA-ubiquitin, MKRN1-V5, 10 μM MG132, 2 hours), the “ubiquitin conjugates of hTERT” value is listed as “easily detected”. In addition, in the experiment on hTERT [2] (H1299, 10 μM MG132 pretreatment 2 hours before GA), the “effect on GA-induced degradation of endogenous hTERT” value was “rescued”. Further, the “effect on GA-induced down-regulation of hTERT” value in the experiment with hTERT [2] (H1299 Flag-hTERT, 10 μM pretreatment 2 hours, then GA 4 hours) is listed as “rescued”. Further, the “hTERT expression levels, inhibitor alone” value in the experiment with hTERT [2] (H1299 Flag-hTERT, 10 μM, absence of GA, relative to untreated controls) is “did not cause a significant change”.
